Our source for the Binding energy values is ChEMBL document CHEMBL1122538, “Functional group contributions to drug-receptor interactions” (J Med Chem, 1984).

This data set is described as follows: Binding energy by using the equation deltaG obsd = -RT ln KD. It is filed as ADME.
As to `CN1C(=O)CN=C(c2ccccc2)c2cc(Cl)ccc21` [DIAZEPAM], the Binding energy turned out to be 11.5 kcal/mol.

For the molecule `C[C@]12CC[C@@H]3c4ccc(O)cc4CC[C@H]3[C@@H]1CC[C@@H]2O` [ESTRADIOL], the Binding energy came out at 13.2 kcal/mol.

In the case of `C=C(C)[C@@H]1[C@H]2OC(=O)[C@@H]1[C@]1(O)C[C@H]3O[C@]34C(=O)O[C@H]2[C@]14C` [PICROTOXININ], the Binding energy is 8.7 kcal/mol.

For `COC(=O)C1=CCCN(C)C1` [ARECOLINE], the Binding energy was 7.2 kcal/mol.

For `CNCCCN1c2ccccc2CCc2ccccc21` [DESIPRAMINE], the Binding energy came out at 12.2 kcal/mol.

In the case of `O=C(O)CC(O)(CC(=O)O)C(=O)O` [CITRIC ACID], the Binding energy came to 5 kcal/mol.

Turning to `CN1CCC[C@H]1c1cccnc1` [NICOTINE], the Binding energy stood at 11.2 kcal/mol.

For `CN1CCC(=C2c3ccccc3C=Cc3ccccc32)CC1` [CYPROHEPTADINE], the Binding energy turned out to be 12.8 kcal/mol.

Take `CN1Cc2c(N)cccc2C(c2ccccc2)C1` (stereo not given) [NOMIFENSINE]: the Binding energy is 8.8 kcal/mol.

Consider `CCCCCc1ccc2nc(N)nc(N)c2c1C`, for which the Binding energy worked out at 18.7 kcal/mol.

`O=P(O)(O)CCCCO` registered a Binding energy of 3.3 kcal/mol.

With `O=P(O)(O)O[C@H]1OC[C@@H](O)[C@H](O)[C@H]1O`, the Binding energy stood at 6.2 kcal/mol.

On to `Nc1cc(Cl)c(N=C2NCCN2)c(Cl)c1` [APRACLONIDINE], for which the Binding energy stood at 12.7 kcal/mol.

Regarding `O=c1cccc2n1C[C@@H]1CNC[C@H]2C1` [CYTISINICLINE], the Binding energy was determined as 12.1 kcal/mol.

For the molecule `CCN(CC)C(=O)[C@@H]1C=C2c3cccc4[nH]cc(c34)C[C@H]2N(C)C1` [LYSERGIDE], the Binding energy was determined as 12.7 kcal/mol.

As to `COc1cc(CCN)cc(OC)c1OC` [MESCALINE], the Binding energy is 7.1 kcal/mol.

For the molecule `CC(CN1CCOCC1)C(C(=O)N1CCCC1)(c1ccccc1)c1ccccc1` (stereo not drawn) [RACEMORAMIDE], the Binding energy came out at 12.3 kcal/mol.

In the case of `CC(=O)[C@H]1CC[C@H]2[C@@H]3CCC4=CC(=O)CC[C@]4(C)[C@H]3CC[C@]12C` [PROGESTERONE], the Binding energy was determined as 10.5 kcal/mol.

In turn, `COc1cc(Cc2cnc(N)nc2N)cc(OC)c1OC` [TRIMETHOPRIM] returned a Binding energy of 11.5 kcal/mol.

For `Cc1ncc(CO)c(CN[C@@H](C)C(=O)O)c1O`, the Binding energy came out at 9.2 kcal/mol.

In the case of `CNCCCC1c2ccccc2C=Cc2ccccc21` [PROTRIPTYLINE], the Binding energy stood at 10.8 kcal/mol.

For `Cc1ccc(F)cc1NC1=NCCN1` [FLUTONIDINE], the Binding energy turned out to be 11.4 kcal/mol.

The molecule `ClC1=C(Cl)[C@]2(Cl)[C@@H]3[C@@H]4C[C@@H]([C@H]5O[C@@H]45)[C@@H]3[C@@]1(Cl)C2(Cl)Cl` [DIELDRIN] displayed a Binding energy of 6.1 kcal/mol.

The molecule `CCCCC[C@H](O)/C=C/[C@@H]1[C@@H](C/C=C\CCCC(=O)O)[C@@H](O)C[C@H]1O` [DINOPROST] showed a Binding energy of 9.2 kcal/mol.

Turning to `COc1ccc(CCN2CCC(Nc3nc4ccccc4n3Cc3ccc(F)cc3)CC2)cc1` [ASTEMIZOLE], the Binding energy was determined as 11.3 kcal/mol.

Take `N=C(N)N/N=C/c1c(Cl)cccc1Cl` [GUANABENZ]: the Binding energy worked out at 12.3 kcal/mol.

`Oc1ncnc2[nH]ncc12` [ALLOPURINOL]: the Binding energy turned out to be 12.5 kcal/mol.

With `CC(=O)O` [ACETIC ACID], the Binding energy amounted to 3.1 kcal/mol.

Molecule `NC(=O)C(N)Cc1ccccc1` (stereo not given) came in with a Binding energy of 6.1 kcal/mol.

Regarding `C[C@@H]1O[C@@H](O[C@H]2C[C@@H](O)[C@]3(CO)[C@H]4[C@H](O)C[C@]5(C)[C@@H](C6=CC(=O)OC6)CC[C@]5(O)[C@@H]4CC[C@]3(O)C2)[C@H](O)[C@H](O)[C@H]1O` [OUABAIN], the Binding energy came to 11.5 kcal/mol.

For `O=C1CCCN1CC#CCN1CCCC1` [OXOTREMORINE], the Binding energy is 11.7 kcal/mol.

Turning to `CN1CCN2c3ccccc3Cc3ccccc3C2C1` (stereo not given) [MIANSERIN], the Binding energy came to 12.5 kcal/mol.

As to `CC[C@@H]1C(=O)OC[C@@H]1Cc1cncn1C` [PILOCARPINE], the Binding energy amounted to 10.1 kcal/mol.

`CCC(=O)C(CC(C)N(C)C)(c1ccccc1)c1ccccc1` (stereo not given) [METHADONE] registered a Binding energy of 11.8 kcal/mol.

`Cc1c(O)oc2ccccc2c1=O`: the Binding energy worked out at 7 kcal/mol.

With `CN1C[C@H](CNC(=O)OCc2ccccc2)C[C@@H]2c3cccc4c3c(cn4C)C[C@H]21` [METERGOLINE], the Binding energy is 13 kcal/mol.

With `Cc1csc(Cl)c1NC1=NCCN1` [TIAMENIDINE], the Binding energy turned out to be 11.8 kcal/mol.

`Cc1ccc(/C(=C\CN2CCCC2)c2ccccn2)cc1` [TRIPROLIDINE]: the Binding energy stood at 13.6 kcal/mol.

`COC(=O)[C@@H]1[C@H]2C[C@H]3c4[nH]c5ccccc5c4CCN3C[C@@H]2CC[C@@H]1O` [YOHIMBINE] gave a Binding energy of 11.9 kcal/mol.

In turn, `O=C(O)C(Cc1ccccc1)OP(=O)(O)O` (stereo not given) had a Binding energy of 9.3 kcal/mol.

Take `CC(=O)O[C@]1(C(C)=O)CC[C@H]2[C@@H]3C[C@H](C)C4=CC(=O)CC[C@]4(C)[C@H]3CC[C@@]21C` [MEDROXYPROGESTERONE ACETATE]: the Binding energy came out at 10.2 kcal/mol.

Molecule `O=C(O)Cc1ccccc1Oc1ccc(Cl)c(O)c1Cl` came in with a Binding energy of 8.7 kcal/mol.

In turn, `O=c1[nH]c2ccccc2n1CCCN1CCC(n2c(=O)[nH]c3cc(Cl)ccc32)CC1` [DOMPERIDONE] registered a Binding energy of 13.8 kcal/mol.

For `O=c1[nH]c(=O)c2c[nH]nc2[nH]1` [OXYPURINOL], the Binding energy was 12.6 kcal/mol.

`CN(Cc1cnc2nc(N)nc(N)c2n1)c1ccc(C(=O)N[C@@H](CCC(=O)O)C(=O)O)cc1` [METHOTREXATE]: the Binding energy amounted to 12.9 kcal/mol.

Consider `COC1C2CCN(CC3CC3)C1Cc1ccc(O)cc12` (stereo not given), for which the Binding energy was found to be 12.2 kcal/mol.

Take `NCCCC(=O)O` [GAMMA-AMINOBUTYRIC ACID]: the Binding energy came to 10.9 kcal/mol.

Molecule `C[C@]12CCC(=O)C[C@@H]1CC[C@@H]1[C@@H]2CC[C@]2(C)[C@@H](O)CC[C@@H]12` (stereo in doubt) [STANOLONE] registered a Binding energy of 6.8 kcal/mol.

For the molecule `O=C(O)CCCC[C@@H]1SC[C@@H]2NC(=O)N[C@@H]21` [BIOTIN], the Binding energy turned out to be 20.5 kcal/mol.

For `N[C@@H](Cc1cc(I)c(Oc2cc(I)c(O)c(I)c2)c(I)c1)C(=O)O` [LEVOTHYROXINE], the Binding energy was 10.3 kcal/mol.

On to `Cc1c(Cc2ccc(Cl)cc2)cnc2nc(N)nc(N)c12`, for which the Binding energy was 13.2 kcal/mol.

Take `CCC(C)CN` (stereo not given): the Binding energy was 2.8 kcal/mol.

Molecule `c1ccc2c(c1)OCC(CN1CCCCC1)O2` (stereo not given) [PIPEROXAN] gave a Binding energy of 10.7 kcal/mol.

`Cc1cc(C(C)(C)C)c(O)c(C)c1CC1=NCCN1` [OXYMETAZOLINE]: the Binding energy came out at 12.2 kcal/mol.

In turn, `O=C1CCN([C@H]2C[C@H](O)[C@@H](COP(=O)(O)O)O2)C(=O)N1` showed a Binding energy of 10.9 kcal/mol.

`CN(C)CCOC(c1ccc(Cl)cc1)c1ccccn1` (stereo not given) [CARBINOXAMINE]: the Binding energy came to 12.3 kcal/mol.

For the molecule `O=C(O)Cc1ccccc1Nc1c(Cl)cccc1Cl` [DICLOFENAC], the Binding energy was found to be 9.6 kcal/mol.

For `O=C(NO)C(O)P(=O)(O)O` (stereo not given), the Binding energy stood at 10.9 kcal/mol.

`CN(C)CCC(c1ccc(Cl)cc1)c1ccccn1` (stereo not given) [CHLORPHENIRAMINE] registered a Binding energy of 12.8 kcal/mol.

Molecule `NCCc1c[nH]c2ccc(O)cc12` [SEROTONIN] yielded a Binding energy of 8.9 kcal/mol.

Molecule `CN1[C@@H]2CC[C@H]1C[C@@H](OC(c1ccccc1)c1ccccc1)C2` [BENZTROPINE] gave a Binding energy of 12.6 kcal/mol.

Turning to `CN(C)CCC=C1c2ccccc2COc2ccccc21` [DOXEPIN], the Binding energy amounted to 13.1 kcal/mol.

For `CCCCC[C@H](O)/C=C/[C@H]1[C@H](O)CC(=O)[C@@H]1C/C=C\CCCC(=O)O` [DINOPROSTONE], the Binding energy came to 11.5 kcal/mol.

Molecule `CC[C@H](C)[C@H](N)C(=O)O` [ISOLEUCINE] came in with a Binding energy of 7.1 kcal/mol.

Consider `Clc1ccc(C(c2ccc(Cl)cc2)C(Cl)(Cl)Cl)cc1` [CHLOROPHENOTHANE], for which the Binding energy was 7.6 kcal/mol.

On to `CNC(=O)Oc1cccc2ccccc12` [CARBARIL], for which the Binding energy was found to be 6.4 kcal/mol.

Regarding `C[C@@H]1C[C@H]2[C@@H]3CCC4=CC(=O)C=C[C@]4(C)[C@@]3(F)[C@@H](O)C[C@]2(C)[C@@]1(O)C(=O)CO` [DEXAMETHASONE], the Binding energy amounted to 10.9 kcal/mol.

For the molecule `CN(C)CCC=C1c2ccccc2CCc2ccccc21` [AMITRIPTYLINE], the Binding energy was 12.3 kcal/mol.

The molecule `CN(C)CCc1c[nH]c2ccc(O)cc12` [BUFOTENINE] had a Binding energy of 9.4 kcal/mol.

`C(=C\c1ccccc1)/CN1CCN(C(c2ccccc2)c2ccccc2)CC1` [CINNARIZINE] had a Binding energy of 8.4 kcal/mol.

For `CCc1nc(N)nc(N)c1-c1ccc(Cl)cc1` [PYRIMETHAMINE], the Binding energy is 9.7 kcal/mol.

`COc1cc2nc(N3CCN(C(=O)c4ccco4)CC3)nc(N)c2cc1OC` [PRAZOSIN]: the Binding energy was 13.1 kcal/mol.

`CC(C)Cc1ccc(C(C)C(=O)O)cc1` (stereo not given) [IBUPROFEN] had a Binding energy of 8.3 kcal/mol.

The molecule `O=C(O)C(COP(=O)(O)O)[C@H](O)[C@H](O)COP(=O)(O)O` (stereo not given in full) gave a Binding energy of 8.2 kcal/mol.

The molecule `CN1CCC(=C2c3ccccc3Oc3ccc(Cl)cc32)CC1` [CLOPIPAZAN] came in with a Binding energy of 12.8 kcal/mol.

Turning to `O=C(NC1CCN(CCc2c[nH]c3ccccc23)CC1)c1ccccc1` [INDORAMIN], the Binding energy amounted to 11.5 kcal/mol.

In turn, `CCCCC[C@H](O)/C=C/[C@H]1[C@H](O)CC(=O)[C@@H]1CCCCCCC(=O)O` [ALPROSTADIL] displayed a Binding energy of 11.2 kcal/mol.

`C[N+](C)(C)CCOC(N)=O.[Cl-]` [CARBACHOL] yielded a Binding energy of 10.7 kcal/mol.

For `O=c1oc2ccccc2c(O)c1Cc1c(O)c2ccccc2oc1=O` [DICUMAROL], the Binding energy turned out to be 8.8 kcal/mol.

The molecule `CC(C)Cc1cnc2nc(N)nc(N)c2n1` yielded a Binding energy of 12.3 kcal/mol.
